The source of these data is patent publication US9598415B2, “Compounds as modulators of RORγ” (Boehringer Ingelheim International GmbH, priority 2014, dated 2017).

The target of this experiment is RORγ (Homo sapiens (Human), UniProt P51449). The experiment in a line: Reporter Gene Assay (RGA): inhibition of RORγ transactivation of a luciferase reporter. It is filed as cell-based. The conditions noted are these: transiently transfected HEK 293 cells (Gal4DBD hRORC LBD), 20-24 h incubation. Background: A reporter such as luciferase makes a cellular process visible.
Sequence of RORγ (P51449 269-508): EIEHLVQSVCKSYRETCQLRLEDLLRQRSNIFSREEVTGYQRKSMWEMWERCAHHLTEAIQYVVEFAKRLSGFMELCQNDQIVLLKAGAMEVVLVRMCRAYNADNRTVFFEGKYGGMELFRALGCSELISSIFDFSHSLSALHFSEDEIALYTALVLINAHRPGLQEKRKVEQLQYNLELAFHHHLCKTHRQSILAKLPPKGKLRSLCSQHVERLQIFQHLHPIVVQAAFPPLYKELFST
In general, IC50 refers to the concentration at which inhibition is half-maximal. Read a high IC50 as a need for much substance. As to `CNS(=O)(=O)c1ccc(CNc2nc3cnc(-c4c(C)ncnc4C4CC4)nc3n([C@@H](C)C3CC3)c2=O)cc1` [Example 134], 0.4 µM corresponded to half-maximal inhibition (IC50).

`CCS(=O)(=O)c1ccc(CNc2nc3cnc(-c4c(OC)ncnc4C4CC4)nc3n(C(C)C)c2=O)cc1` [Example 143] registered an IC50 of 0.134 µM. With `CCS(=O)(=O)c1ccc(CNc2nc3cnc(-c4c(C)ncnc4C4CC4)nc3n([C@@H]3C[C@H]4CC[C@@H]3C4)c2=O)nc1` [Example 220], the IC50 was determined as 0.39 µM.
